Laboratory results from article PMC6950245, “Identification and Characterization of ShSPI, a Kazal-Type Elastase Inhibitor from the Venom of Scolopendra Hainanum” (Toxins, 2019).
Where a SMILES comes first, the peptide text is derived from it. Bridges are numbered along the chain shown (N, C = ends).

Columns and labels:
[1] = molecular target: T1, human neutrophil elastase (HNE) (Homo sapiens, UniProt P08246); assay: Protease inhibition assay, human neutrophil elastase (chromogenic substrate, Dixon method); assay type: biochemical
T1 construct: purchased Sigma-Aldrich E8140
T1 sequence (P08246 30-267): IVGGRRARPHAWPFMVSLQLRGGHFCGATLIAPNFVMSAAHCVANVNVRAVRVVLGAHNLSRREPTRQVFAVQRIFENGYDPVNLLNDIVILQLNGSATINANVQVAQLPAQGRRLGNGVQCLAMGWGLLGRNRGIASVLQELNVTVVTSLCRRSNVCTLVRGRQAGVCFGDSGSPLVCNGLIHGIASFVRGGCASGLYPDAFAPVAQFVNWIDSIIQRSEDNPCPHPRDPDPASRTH
Description: (§1) Human neutrophils elastase (HNE, E8140), porcine pancreatic elastase (PPE, E0127), cathepsin G (CG, C4428), human trypsin (T6424), α-chymotrypsin from human pancreas (C8946), and thrombin from human plasma (T4393) were all purchased from Sigma-Aldrich (USA). Factor Xa (FXa, HFXa 1011) and Factor XIIa (FXIIa, HFXIIa 1212a) were from Enzyme Research Laboratories (South Bend, IN, USA). Kallikrein from human plasma (420307) was from Merck Millipore (Billerica, MA, USA).
Substrate for HNE and PPE (MeOSuc-Ala-Ala-Pro-Val-pNA, 324696) was purchased from Merck Millipore (USA). Substrates for CG (Succinyl-Ala-Ala-Pro-Phe-pNA, 573462), trypsin (Nalpha-Benzoyl-L-arginine 4-nitroanilide hydrochloride, B3133), FXa (CH3OCO-D-CHA-Gly-Arg-pNA-AcOH, F3301), chymotrypsin (N-Succinyl-Gly-Gly-Phe-pNA, S1899), thrombin (β-Ala-Gly-Arg-pNA diacetate, T3068), and kallikrein (Z-Phe-Arg 7-amido-4-methylcoumarin hydrochloride, C9521) were purchased from Sigma-Aldrich (USA).
(§2) As mentioned in our previous study, experiments for protease inhibitory activity were assayed in buffer (0.05 M Tris-HCl, pH 7.8) at 37 °C. […] At the end of the incubation, the reaction was initiated by the addition of the exclusive substrate solution and monitored by recording the absorbance at 405 nm every 30 s for 30 min. Enzyme activity in each well was calculated based on the initial slope of the reaction curve, and percentage of the initial slope of the uninhibited reaction was expressed. The inhibition constant Ki value was determined according to the Dixon method.

[2] = Plasma stability, read out by enzyme inhibitory activity; assay type: in vitro ADME; details: lyophilized human plasma resuspended in water, 500 nM, 37 °C, 0-48 h, triplicate samples
Description: Lyophilized human plasma (400100, Cayman, Ann Arbor, MI, USA) was resuspended in sterile water according to the instruction, then ShSPI was added to each equivalent volume with a final concentration of 500 nM, and samples were co-incubated at 37 °C for two days. Triplicate samples were collected at selected time points (0, 6, 12, 18, 24, 30, 36, 42, and 48 h) and protease activity was tested as described above.

[3] = molecular target: T2, porcine pancreatic elastase (PPE) (Sus scrofa, UniProt P00772); assay: Surface plasmon resonance, ShSPI immobilized, PPE injected; details: SPR Biacore 3000, ShSPI on CM5 chip, PPE injected 180 s at 10 μL/min, HBS-P buffer, Langmuir binding fit; read-out: ka, PPE
T2 construct: purchased Sigma-Aldrich E0127
Description: (§3) Sensor chips CM5 (BR100012), 10 mM acetate buffer (BR100350, pH 4.0), amine coupling kit (BR100050), and HBS-P buffer (BR100826, used as running buffer) were all obtained from GE Healthcare Bio-sciences AB (Uppsala, Sweden). Data were collected and analyzed by BIAcore System (Version 3000, GE Healthcare Life Sciences, Pittsburgh, PA, USA) and BIA evaluation software (Version 3.0, GE Healthcare Life Sciences, Pittsburgh, PA, USA).
(§4) Before testing, ShSPI (100 μg/mL in acetate buffer, pH 4.0) was immobilized to the surface of CM5 chip. Following a standard amine coupling chemistry, running buffer was used to reach equilibration. HNE or PPE (doubling dilution) was injected over the immobilized ShSPI at a flow rate of 10 μL/min, and the association rate (ka, M^−1s^−1) was determined. After 3 min, running buffer was applied to the surface, and the dissociation rate (kd, s^−1) was determined over 15 min for PPE and 30 min for HNE, and another 500 μL of running buffer were injected at a flow rate of 20 μL/min to rebalance the chip. The equilibrium association constant (KA, M^−1) and the equilibrium dissociation constant (KD, M) were determined by ka/kd and kd/ka, respectively.

[4] = molecular target: T2, porcine pancreatic elastase (PPE); assay: Protease inhibition assay, porcine pancreatic elastase (chromogenic substrate, Dixon method); assay type: biochemical; details: 0.05 M Tris-HCl pH 7.8, 37 °C, 10 min pre-incubation, PPE 1 μg/mL, substrate MeOSuc-Ala-Ala-Pro-Val-pNA 30, 60, 90 μg/mL, absorbance 405 nm
Description: as §1
Substrate for HNE and PPE (MeOSuc-Ala-Ala-Pro-Val-pNA, 324696) was purchased from Merck Millipore (USA). […]
as §2

[5] = molecular target: T1, human neutrophil elastase (HNE); assay: Surface plasmon resonance, ShSPI immobilized, HNE injected; details: SPR Biacore 3000, ShSPI on CM5 chip, HNE injected 180 s at 10 μL/min, HBS-P buffer, Langmuir binding fit; read-out: ka, HNE
Description: as §3, §4

[6] = molecular target: T2, porcine pancreatic elastase (PPE); design: method as in PMID 2049103; details: reported; cited from earlier work

T2 sequence (P00772 27-266): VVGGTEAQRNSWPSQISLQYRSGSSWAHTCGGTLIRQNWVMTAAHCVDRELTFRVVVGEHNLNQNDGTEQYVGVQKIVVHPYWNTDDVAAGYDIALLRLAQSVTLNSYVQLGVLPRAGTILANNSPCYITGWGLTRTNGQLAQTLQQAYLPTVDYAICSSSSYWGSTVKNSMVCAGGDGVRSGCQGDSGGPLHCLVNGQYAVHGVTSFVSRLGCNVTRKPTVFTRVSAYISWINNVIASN

Compound: CC[C@H](C)[C@@H]1NC(=O)[C@H](C)NC(=O)[C@@H]2CCCN2C(=O)[C@@H]2CSSC[C@H](NC(=O)[C@H](CO)NC(=O)[C@H](CC(N)=O)NC(=O)[C@H](CO)NC(=O)[C@H](Cc3ccc(O)cc3)NC(=O)[C@H](CCSC)NC(=O)[C@H](CCCNC(=N)N)NC(=O)CNC(=O)[C@H](Cc3ccccc3)NC(=O)[C@H](CCC(=O)O)NC(=O)[C@H](CC(=O)O)NC(=O)[C@H](Cc3ccccc3)NC(=O)[C@H](C(C)C)NC(=O)[C@@H]3CCCN3C(=O)[C@H](CCC(N)=O)NC(=O)[C@H](Cc3ccc(O)cc3)NC1=O)C(=O)N[C@@H](C)C(=O)N[C@@H](CCSC)C(=O)N[C@@H](CCC(N)=O)C(=O)N[C@@H](CCCNC(=N)N)C(=O)N[C@@H](C)C(=O)N[C@@H](CCCNC(=N)N)C(=O)N[C@H](C(=O)N[C@@H](CC(C)C)C(=O)N[C@@H](CCCNC(=N)N)C(=O)NCC(=O)O)CSSC[C@H](N)C(=O)N1CCC[C@H]1C(=O)N[C@@H](CCC(N)=O)C(=O)N[C@@H](C(C)C)C(=O)N2 [E25A] (H-CPQVCPAIYQPVFDEFGRMYSNSCAMQRARCLRG-OH; disulfide 1-31, 5-24)
- Ki [1]: > 1000 µM

Compound: CC[C@H](C)[C@@H]1NC(=O)[C@H](C)NC(=O)[C@@H]2CCCN2C(=O)[C@@H]2CSSC[C@H](NC(=O)[C@H](CO)NC(=O)[C@H](CC(N)=O)NC(=O)[C@H](CO)NC(=O)[C@H](Cc3ccc(O)cc3)NC(=O)[C@H](CCSC)NC(=O)[C@H](CCCNC(=N)N)NC(=O)CNC(=O)[C@H](Cc3ccccc3)NC(=O)[C@H](CCC(=O)O)NC(=O)[C@H](CC(=O)O)NC(=O)[C@H](Cc3ccccc3)NC(=O)[C@H](C(C)C)NC(=O)[C@@H]3CCCN3C(=O)[C@H](CCC(N)=O)NC(=O)[C@H](Cc3ccc(O)cc3)NC1=O)C(=O)N[C@@H](CCC(=O)O)C(=O)N[C@@H](CCSC)C(=O)N[C@@H](CCC(N)=O)C(=O)N[C@@H](CCCNC(=N)N)C(=O)N[C@@H](C)C(=O)N[C@@H](CCCNC(=N)N)C(=O)N[C@H](C(=O)N[C@@H](CC(C)C)C(=O)N[C@@H](CCCNC(=N)N)C(=O)NCC(=O)O)CSSC[C@H](N)C(=O)N1CCC[C@H]1C(=O)N[C@@H](CCC(N)=O)C(=O)N[C@@H](C(C)C)C(=O)N2 [ShSPI] (H-CPQVCPAIYQPVFDEFGRMYSNSCEMQRARCLRG-OH; disulfide 1-31, 5-24)
- Stability in human plasma [2]: no significant degradation over 48 h
- kon [3]: 45000 M⁻¹ s⁻¹
- Ki [4]: 0.226 ± 0.02 µM
- kon [5]: 4500 M⁻¹ s⁻¹
- Ki [1]: 0.0126 ± 0.002 µM

Compound: CC[C@H](C)[C@@H]1NC(=O)[C@H](C)NC(=O)[C@H](C)NC(=O)[C@@H]2CSSC[C@H](NC(=O)[C@H](CO)NC(=O)[C@H](CC(N)=O)NC(=O)[C@H](CO)NC(=O)[C@H](Cc3ccc(O)cc3)NC(=O)[C@H](CCSC)NC(=O)[C@H](CCCNC(=N)N)NC(=O)CNC(=O)[C@H](Cc3ccccc3)NC(=O)[C@H](CCC(=O)O)NC(=O)[C@H](CC(=O)O)NC(=O)[C@H](Cc3ccccc3)NC(=O)[C@H](C(C)C)NC(=O)[C@@H]3CCCN3C(=O)[C@H](CCC(N)=O)NC(=O)[C@H](Cc3ccc(O)cc3)NC1=O)C(=O)N[C@@H](CCC(=O)O)C(=O)N[C@@H](CCSC)C(=O)N[C@@H](CCC(N)=O)C(=O)N[C@@H](CCCNC(=N)N)C(=O)N[C@@H](C)C(=O)N[C@@H](CCCNC(=N)N)C(=O)N[C@H](C(=O)N[C@@H](CC(C)C)C(=O)N[C@@H](CCCNC(=N)N)C(=O)NCC(=O)O)CSSC[C@H](N)C(=O)N1CCC[C@H]1C(=O)N[C@@H](CCC(N)=O)C(=O)N[C@@H](C(C)C)C(=O)N2 [P6A] (H-CPQVCAAIYQPVFDEFGRMYSNSCEMQRARCLRG-OH; disulfide 1-31, 5-24)
- Ki [1]: 0.105 µM

Compound: CC(C)(C)C(=O)Oc1ccc(S(=O)(=O)Nc2ccccc2C(=O)NCC(=O)O)cc1 [sivelestat]
- Inhibitory activity to PPE (literature) [6]: little inhibitory activity
